Entries after “also recorded” stand apart in the source; their conditions may differ. Where two headings read alike, the source gives them in different places.
Tests used:
[1] = test system: human patients, abdominal surgery; details: 6 mg and 12 mg oral doses, started at least two hours prior to abdominal surgery; cited from earlier work
mu opioid receptor = mu opioid receptor (Homo sapiens, UniProt P35372); details: Alvimopan compared with methylnaltrexone; as characterized by Adolor Corporation; cited from earlier work
[2] = test system: human segmental colectomy patients; test: Phase 2 randomized, double-blind, placebo-controlled study of IV MNTX after segmental colectomy; format: in vivo
From the text: The following non-limiting examples relate to a phase 2 human study using MNTX to reduce the duration of gastrointestinal dysfunction following segmental colectomy. The primary objective of this study was to assess the activity of parenterally administered MNTX every six hours compared with placebo in shortening the duration of or preventing post-operative ileus in patients who have undergone segmental colectomies. Evidence of activity of MNTX was based on at least one or more of the following: the time to tolerance of liquids, time to first bowel movement, time to tolerance of solid foods, time to the combination of first solid meal and bowel movement, time to first micturition post foley catheter removal, and time to hospital discharge. The use of daily anti-emetic and opioid medication was also assessed.
A total of 65 patients at eight surgical centers participated in the phase 2 randomized, double-blind, placebo-controlled study. Subjects underwent segmental colectomies primarily due to cancer or diverticular disease. Shortly after surgery (90 minutes post surgery), study medication (0.3 mg/kg MNTX or placebo) was administered intravenously at six-hour intervals for a maximum of seven days.
The study was a double-blind, randomized parallel group study designed to evaluate the safety and activity of IV (intravenous) MNTX in the treatment of patients who are undergoing segmental colectomies via laparotomy and the duration of their post-operative ileus. Patients were randomized to either placebo (saline) or a fixed dose of IV MNTX of 0.30 mg/kg patient body weight in 50 cc of 0.9% normal saline hung as an IV piggyback (IVPB) to the main line and infused over twenty (20) minutes every six (6) hours until twenty-four (24) hours after the patient could tolerate solid foods, until discharged from the hospital, or for a maximum of seven (7) days. These time points for study drug discontinuation were selected in order to analyze the secondary efficacy endpoints of IV MNTX as well as the primary endpoints.
Day of Surgery. Within twenty-four (24) hours of surgery, patients were randomly assigned to either the MNTX 0.30 mg/kg or placebo (saline) dose group.
Prior to the first study drug administration the patient's vital signs were monitored. Patients were asked to assess their level of nausea, abdominal cramping, pain, and itching based on a verbal numerical scale. Within 90 minutes from the end of the surgical procedure, defined as the surgical end time recorded on the operating room (OR) sheet (regardless of whether a patient was in the PACU or not) the first dose of study drug was administered intravenously through an already existing IV line, hung as an IV piggyback (IVPB) to the main line, over 20 minutes. If the IV line was being used for other medications, i.e. antibiotics, electrolyte supplements, etc., the line was flushed with 20 cc of the main IV fluid prior to the hanging of study product. The patient's vital signs were monitored at the end of the study medication infusion, 20 min, 60 min, 120 min and 180 minutes after this first IV study drug administration. Patients were asked to assess their level of nausea, abdominal cramping, pain, and itching based on a verbal numerical scale and whether or not they had vomited 60 minutes after the end of the first study drug administration.
Inability to tolerate clear liquids was defined as nausea and/or vomiting within the first 60 minutes of the challenge.
The patient's diet was advanced to full liquids (≧500 cc of liquid) at the meal following the patient's tolerance of their first 30 cc of water by mouth. The patient's diet was then advanced to solid foods at the meal following their tolerance of full liquids. Tolerance of full liquids was defined as no clinically significant nausea and no vomiting within the first hour of the conclusion of the full liquids. […]

rat = details: cited from earlier work
[3] = white crystalline powder as provided; cited from earlier work
[4] = segmental colectomy patients, MNTX 0.30 mg/kg IV every 6 hours, on average
[5] = segmental colectomy patients, on average
[6] = sigmoidectomy patients, MNTX IV after surgery, on average

Chain of mu opioid receptor (P35372 whole entry, species assumed): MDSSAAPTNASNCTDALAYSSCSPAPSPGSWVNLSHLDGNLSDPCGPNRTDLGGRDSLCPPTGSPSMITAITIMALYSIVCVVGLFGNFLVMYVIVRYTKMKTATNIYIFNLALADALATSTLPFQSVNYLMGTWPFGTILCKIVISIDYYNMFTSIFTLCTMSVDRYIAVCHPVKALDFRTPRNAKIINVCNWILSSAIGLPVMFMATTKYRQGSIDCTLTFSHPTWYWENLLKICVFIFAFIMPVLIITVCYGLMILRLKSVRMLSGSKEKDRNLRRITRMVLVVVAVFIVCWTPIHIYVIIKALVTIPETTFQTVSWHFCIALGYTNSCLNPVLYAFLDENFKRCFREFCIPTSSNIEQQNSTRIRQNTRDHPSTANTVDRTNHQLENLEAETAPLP

SMILES	Outcome of phase III human studies on post-operative gastrointestinal dysfunction end-points [1]	Affinity for mu opioid receptor, relative (mu opioid receptor)	Time to first bowel movement ([2]; segmental colectomy patients, MNTX 0.30 mg/kg IV every 6 hours started after surgery, on average)	Time to actual discharge [2, 4]	Time to discharge eligibility [2, 4]	Time to first flatus [2, 4]	Time to first full liquid diet [2, 4]	Time to first solid meal [2, 4]	Time to first solid meal and bowel movement (solids in-solids out) [2, 4]	Time to first use of an anti-emetic [2, 4]	Time to first anti-emetic use, delayed relative to absence of drug [2, 5]	Time to first flatus, accelerated relative to absence of drug [2, 5]	Time to first solid meal ([2]; sigmoidectomy patients, MNTX IV after surgery)	Time to actual discharge [2, 6] [h]	Time to discharge eligibility [2, 6]	Time to first bowel movement [2, 6]	Time to first flatus [2, 6]	Recovery of gastrointestinal transit (rat; MNTX intravenously 90 minutes before surgery)	Recovery of gastrointestinal transit (rat; MNTX intravenously closer to surgery (60 minutes or 45 minutes before surgery))	Solubility in water [3]
C[C@H]1CN(C[C@H](Cc2ccccc2)C(=O)NCC(=O)O)CC[C@@]1(C)c1cccc(O)c1 [Alvimopan]	inconsistent results that lacked statistical significance for many of the end-points; also recorded: inconsistent and lack statistical significance with respect to many of the end-points	greater affinity and selectivity than methylnaltrexone																		
C[N+]1(CC2CC2)CC[C@]23c4c5ccc(O)c4O[C@H]2C(=O)CC[C@@]3(O)[C@H]1C5 (stereo partly drawn) [MNTX, N-cyclopropylmethylnoroxy-morphine-methobromide]		lower mu opioid receptor affinity than Alvimopan	about 97 hours	about 140 hours	about 119 hours	about 88 hours	about 70 hours	about 100 hours	about 124 hours	about 26 hours	about 10 hours	about 8 hours	about 93 hours	≤ 125	about 105 hours	about 94 hours	about 85 hours	signs of partial recovery of gastrointestinal transit	not	freely soluble in water
